Measurements published in patent publication US8981106B2, “Pyrimidinecarboxamides as CXCR2 modulators” (Syntrix Biosystems, Inc., priority 2009, dated 2015).
Read-outs that look alike come from different tables or passages of the source.

Target: CXCR2 (Homo sapiens (Human), UniProt P25025)
Test: Inhibition of GROα-mediated intracellular calcium release in human neutrophils (FLIPR-3 Ca2+ mobilization)
Type: cell-based
Conditions: read-out: IC50
Description: In Tables 1-5, the IC50 or EC50 values were determined using the following assay. This assay measures intracellular calcium release via fluorescence as an indication of CXCR2 receptor activation by the physiologic agonist GROα. The assay is a Ca^2+ mobilization assay that measures changes in intracellular Ca^2+ with a FlexStation II scanning fluorometer using a FLIPR-3 Calcium Assay Kit (Molecular Devices, Sunnyvale, Calif.). The procedure is as follows:
1. Human neutrophils were suspended in HBSS^− (without Ca^2+ and Mg^2+) containing 10 mM HEPES and FLIPR Calcium 3 dye (3.1×10^7 cells in total volume 1.7 mL).
2. […] As controls, 2 μL of DMSO (1% final concentration) were added to other 2 tubes.
3. Cells were incubated for 30 min at 37° C.
4. After dye loading, tubes were centrifuged at 6,000 rpm for 1 min, supernatant was removed and cell pellet was re-suspended in 200 μL of HBSS^+ (with Ca^2+ and Mg^2+) containing 10 mM HEPES.
5. The compound or DMSO (control) was added again at the same concentrations that were used during cell loading.
6. The cell suspension was aliquoted into a 96-well Reading Plate (Corning) in a volume of 90 μL (10^5 cells/well). The Compound Plate contained physiologic agonist (GROα in HBSS^−) or HBSS^− (control).
9. The maximum change in fluorescence, expressed in arbitrary units over baseline (Max-Min) was used to determine the GROα response. […] Therapeutic Activity
Briefly, human neutrophils were suspended in HBSS^− (without Ca^2+ and Mg^2+) containing 10 mM HEPES and FLIPR Calcium 3 dye (3.1×10^7 cells in total volume 1.7 mL). […] As controls, 2 μL of DMSO (1% final concentration) were added to 2 other tubes. Cells were incubated for 30 min at 37° C. After dye loading, tubes were centrifuged at 6,000 rpm for 1 min, supernatant was removed and the cell pellet was re-suspended in 200 μL of HBSS^+ (with Ca^2+ and Mg^2+) containing 10 mM HEPES. The test compound or DMSO (control) was added again at the same concentrations that were used during cell loading. The cell suspension was aliquoted into a 96-well Reading Plate (Corning) in a volume of 90 μL (10^5 cells/well). The Compound Plate contained agonist (GROα in HBSS^−) or HBSS^− (control).
The maximum change in fluorescence, expressed in arbitrary units over baseline (Max-Min), was used to determine the GROα response.

Sequence of CXCR2 (P25025 whole entry): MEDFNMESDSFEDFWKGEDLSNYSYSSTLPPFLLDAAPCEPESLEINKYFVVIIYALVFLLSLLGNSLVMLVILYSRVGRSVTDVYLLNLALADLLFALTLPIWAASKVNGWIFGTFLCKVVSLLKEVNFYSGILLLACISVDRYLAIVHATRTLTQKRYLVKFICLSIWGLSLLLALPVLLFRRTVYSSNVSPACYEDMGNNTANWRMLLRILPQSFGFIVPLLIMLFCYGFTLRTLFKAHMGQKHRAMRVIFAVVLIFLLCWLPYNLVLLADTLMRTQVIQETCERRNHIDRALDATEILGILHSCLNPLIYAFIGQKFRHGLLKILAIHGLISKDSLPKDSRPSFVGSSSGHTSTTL

SMILES | IC50 [µM] | IC50 (human neutrophils, 25 nM GROα) [µM]
O=C(O)c1ccc(NC(=O)c2ccc(SCc3ccccc3B(O)O)nc2)cc1 [Compound 160] | > 10 | 
O=C(Nc1ccc(F)cc1)c1ccc(SCc2csc3ccc(Cl)cc23)nc1 [Compound 69] |  | > 10
N#Cc1ccc(C(=O)CSc2ccc(C(=O)Nc3ccc(F)cc3)cn2)cc1 [Compound 102] |  | > 10
O=C(Nc1ccc(F)cc1)c1ccc(SCC(=O)c2cccs2)nc1 [Compound 122] |  | > 5
O=C(Nc1ccc(F)cc1)c1ccc(SCC(=O)c2cc(-c3ccc(Cl)cc3)no2)nc1 [Compound 134] |  | > 10
O=C(Nc1ccc(F)cc1)c1ccc(SCc2ccc([N+](=O)[O-])cc2)nc1 [Compound 39] |  | > 10
Cc1ccc(C(=O)CSc2ccc(C(=O)Nc3ccc(F)cc3)cn2)cc1 [Compound 85] |  | > 10
O=C(Nc1ccc(F)cc1)c1ccc(SCc2nccc3ccccc23)nc1 [Compound 54] |  | > 5
O=C(Nc1ccc(F)cc1)c1ccc(SCC(=O)c2coc3ccccc23)nc1 [Compound 118] |  | > 10
O=C(Nc1ccc(F)cc1)c1ccc(SCC(=O)c2cc(-c3ccc(Cl)c(Cl)c3)no2)nc1 [Compound 135] |  | > 10
CS(=O)(=O)c1ccc(C(=O)CSc2ccc(C(=O)Nc3ccc(F)cc3)cn2)cc1 [Compound 105] |  | > 10
O=C(Nc1ccc(F)cc1)c1ccc(SCC(=O)c2cccc3c2OCCCO3)nc1 [Compound 143] |  | > 10
O=C(Nc1ccc(F)cc1)c1ccc(SCc2ccc3nc(C(F)(F)F)cc(Cl)c3c2)nc1 [Compound 56] |  | > 5
O=C(Nc1ccc(F)cc1)c1ccc(SCc2cccc3nonc23)nc1 [Compound 66] |  | > 5
CCc1cc2c(cc1C(=O)CSc1ccc(C(=O)Nc3ccc(F)cc3)cn1)C(C)(C)CCC2(C)C [Compound 112] |  | 3.69 ± 0.72
Cc1nc(-c2ccc(CSc3ccc(C(=O)Nc4ccc(F)cc4)cn3)cc2)no1 [Compound 34] |  | > 10
O=C(Nc1ccc(F)cc1)c1ccc(SCCCCCCN2C(=O)c3ccc([N+](=O)[O-])cc3C2=O)nc1 [Compound 60] |  | > 10
O=C(Nc1ccc(F)cc1)c1ccc(SCC(=O)c2cc(C(=O)O)no2)nc1 [Compound 138] |  | 0.081 ± 0.01
CC1(C)C2CC3OB(c4ccccc4CSc4ccc(C(=O)Nc5ccc(F)cc5)cn4)OC3(C)C1C2 (centres unmarked) [Compound 17] |  | 0.059 ± 0.029
O=C(Nc1ccc(F)cc1)c1ccc(SCc2cc(F)ccc2B(O)O)nc1 [Compound 3] |  | 0.052 ± 0.005
COC(=O)c1cccc(CSc2ccc(C(=O)Nc3ccc(F)cc3)cn2)c1 [Compound 22] |  | > 5

SMILES | IC50 [µM] | IC50 (human neutrophils, 25 nM GROα) [µM]
O=C(Nc1ccc(F)cc1)c1ccc(SCC(=O)c2nc3ccccc3s2)nc1 [Compound 145] |  | > 5
Cn1c(C(=O)CSc2ccc(C(=O)Nc3ccc(F)cc3)cn2)nc2ccccc21 [Compound 151] |  | 0.703 ± 0.291
O=C(Nc1ccc(F)cc1)c1ccc(SCC(=O)c2ccsn2)nc1 [Compound 144] |  | 2.24 ± 0.71
O=C(Nc1ccc(O)cc1)c1ccc(SCc2ccccc2B(O)O)nc1 [Compound 163] |  | 0.105 ± 0.044
O=C(Nc1ccc(F)cc1)c1ccc(SCc2ccccc2-c2cccs2)nc1 [Compound 30] |  | > 5
O=C(Nc1ccc(F)cc1O)c1ccc(SCc2ccccc2B(O)O)nc1 [Compound 165] |  | 0.037 ± 0.007
O=C(Nc1ccc(F)cc1)c1ccc(SCC(=O)c2cc3ccccc3o2)nc1 [Compound 120] |  | > 10
Cc1nc(-c2ccc(Cl)cc2)sc1C(=O)CSc1ccc(C(=O)Nc2ccc(F)cc2)cn1 [Compound 147] |  | > 5
Cc1nc(-c2ccc(C(F)(F)F)cc2)sc1CSc1ccc(C(=O)Nc2ccc(F)cc2)cn1 [Compound 71] |  | > 10
Cc1cc(C(=O)CSc2ccc(C(=O)Nc3ccc(F)cc3)cn2)ccc1Cl [Compound 92] |  | > 5
O=C(Nc1ccc(F)cc1)c1ccc(SCC(=O)c2ccccn2)nc1 [Compound 113] |  | > 10
O=C(CSc1ccc(C(=O)Nc2ccc(F)cc2)cn1)c1ccc2occc2c1 [Compound 117] |  | > 5
O=C(CSc1ccc(C(=O)Nc2ccc(F)cc2)cn1)c1ccc(Cl)c(Cl)c1 [Compound 93] | 1.85 ± 0.55 | 
O=C(Nc1ccc(F)cc1)c1ccc(SCc2cccc(-n3cccc3)c2)nc1 [Compound 38] |  | > 10
O=C(Nc1ccc(F)cc1)c1ccc(SCc2ccncc2)nc1 [Compound 43] |  | > 5
O=C(CSc1ccc(C(=O)Nc2ccc(F)cc2)cn1)c1cccc(C(F)(F)F)c1 [Compound 109] |  | > 10
O=C(Nc1ccc(F)cc1)c1ccc(SCc2cccc(OC(F)(F)F)c2)nc1 [Compound 42] |  | > 10
CC(=O)Oc1ccc(OC(F)(F)F)cc1CSc1ccc(C(=O)Nc2ccc(F)cc2)cn1 [Compound 14a] |  | 1.06 ± 0.27
O=C(CSc1ccc(C(=O)Nc2ccc(F)cc2)cn1)c1ccc(N2CCOCC2)cc1 [Compound 99] |  | > 5
Cc1nc(-c2ccc(C(F)(F)F)cc2)sc1C(=O)CSc1ccc(C(=O)Nc2ccc(F)cc2)cn1 [Compound 148] |  | > 5
O=C(O)CN(C(=O)c1ccc(SCc2ccccc2B(O)O)nc1)c1ccc(F)cc1 [Compound 158] |  | 1.99 ± 0.46

SMILES | IC50 [µM] | IC50 (human neutrophils, 25 nM GROα) [µM]
COC(=O)c1ccccc1CSc1ccc(C(=O)Nc2ccc(F)cc2)cn1 [Compound 21] |  | 0.759 ± 0.19
CC1(C)CCC(C)(C)c2cc(C(=O)CSc3ccc(C(=O)Nc4ccc(F)cc4)cn3)ccc21 [Compound 111] |  | > 5
O=C(Nc1ccc(F)cc1)c1ccc(SCc2ccc(-n3cncn3)cc2)nc1 [Compound 33] |  | > 10
O=C(Nc1ccc(F)cc1)c1ccc(SCc2ccc(C(F)(F)F)o2)nc1 [Compound 74] |  | > 5
Cc1c(C(=O)CSc2ccc(C(=O)Nc3ccc(F)cc3)cn2)cnn1-c1ccccc1 [Compound 150] |  | > 10
O=C(O)c1cccc(CSc2ccc(C(=O)Nc3ccc(F)cc3)cn2)c1 [Compound 25] |  | 2.12 ± 0.74
Cc1onc(-c2ccccc2)c1C(=O)CSc1ccc(C(=O)Nc2ccc(F)cc2)cn1 [Compound 131] |  | > 5
O=C(Nc1ccc(F)cc1)c1ccc(SCc2cc3ccccc3n2S(=O)(=O)c2ccccc2)nc1 [Compound 79] |  | > 5
O=C(CSc1ccc(C(=O)Nc2ccc(F)cc2)cn1)c1ccncc1 [Compound 115] |  | > 10
O=C(Nc1ccc(F)cc1)c1ccc(SCc2ccc(-n3cccn3)cc2)nc1 [Compound 32] |  | > 10
CC1(C)OB(c2ccc(OC(F)(F)F)cc2CSc2ccc(C(=O)Nc3ccc(F)cc3)cn2)OC1(C)C [Compound 19, 6-(2-boronic pinacol ester-5-trifluoromethoxy-benzylsulfanyl)-N-(4-fluoro-phenyl)-nicotinamide] |  | 0.072 ± 0.007
O=C(Nc1ccc(F)cc1)c1ccc(SC[N+](=O)[O-])nc1 [Compound 84] |  | > 10
O=C(Nc1ccc(F)cc1)c1ccc(SCc2ccc(OC(F)(F)F)cc2)nc1 [Compound 41] |  | > 10
O=C(Nc1ccc(F)cc1)c1ccc(SCC(=O)c2ccco2)nc1 [Compound 116] | > 10 | 
O=C(Nc1ccc(OC(F)(F)F)cc1)c1ccc(SCc2ccccc2B(O)O)nc1 [Compound 159] |  | 0.278 ± 0.148
O=C(Nc1ccc(F)cc1)c1ccc(SCc2ccc(B(O)O)cc2)nc1 [Compound 8] |  | 0.899 ± 0.15
O=C(Nc1ccc(F)cc1)c1ccc(SCC(=O)c2cc(-c3ccc(Cl)cc3Cl)no2)nc1 [Compound 136] |  | > 5
O=C(Nc1ccc(F)cc1)c1ccc(SCc2cc3c(cc2B(O)O)OCO3)nc1 [Compound 6] |  | > 10
O=C(Nc1ccc(F)cc1)c1ccc(SCCOc2cccc3c2OCCO3)nc1 [Compound 52] |  | 1.58
Cc1c(C(=O)CSc2ccc(C(=O)Nc3ccc(F)cc3)cn2)sc2ccccc12 [Compound 129] |  | > 10
